Assay results reported in ChEMBL document CHEMBL1201862, “PubChem BioAssay data set” (2004).
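The compound was tested at five concentrations on cells cultured in 96-well plates, with a 48-hour exposure period. Abbreviation: GI50, concentration required for 50% inhibition of growth.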 Activity calls are given as the source filed them. Cut-off read from the data, not from the text of the source: active = GI50 up to about 1.1 µM and inactive = higher.

How the values were obtained:
Assay in all cases: inhibition of tumour cell growth, NCI panel, 48 h
HOP-18 = test system: HOP-18
DMS-114 = test system: DMS-114
DLD-1 = test system: DLD-1
DMS-273 = test system: DMS-273
M19-MEL = test system: M19-MEL
LXFL 529 = test system: LXFL 529
RXF 631 = test system: RXF 631
KM-20L2 = test system: KM-20L2
XF498 = test system: XF498

Compound | GI50 (HOP-18) | GI50 (DMS-114) | GI50 (DLD-1) | GI50 (DMS-273) | GI50 (M19-MEL) | GI50 (LXFL 529) | GI50 (RXF 631) | GI50 (KM-20L2) | GI50 (XF498)
O=C1/C(=C/c2ccccc2)CN(C(=O)CCN2CCOCC2)C/C1=C\c1ccccc1 | 16.7 µM (inactive) | 2.88 µM (inactive) | 1.88 µM (inactive) | 1.87 µM (inactive) | 2 µM (inactive) | 2.52 µM (inactive) | 7.8 µM (inactive) | 1.92 µM (inactive) | 
CCOC(=O)C1=C(Nc2ccc(Br)cc2)OCC1=O | > 100 µM (inactive) |  | > 100 µM (inactive) | > 100 µM (inactive) | > 100 µM (inactive) | > 100 µM (inactive) |  | > 100 µM (inactive) | 
Oc1ccc2c3c1OC1C(=NN=C4CCC5(O)C6Cc7ccc(O)c8c7C5(CCN6CC5CC5)C4O8)CCC4(O)C(C2)N(CC2CC2)CCC314 (configuration not stated) | > 100 µM (inactive) | 21.6 µM (inactive) | 46 µM (inactive) | 24.9 µM (inactive) | 21.7 µM (inactive) | 20.8 µM (inactive) |  | 20.2 µM (inactive) | 19 µM (inactive)
COc1ccc(OC)c(NC(=O)CCC/C(CC(=O)c2ccc(O)c(OC)c2)=N\Nc2ccc([N+](=O)[O-])cc2)c1 | > 100 µM (inactive) | > 100 µM (inactive) | > 100 µM (inactive) | 57.3 µM (inactive) | > 100 µM (inactive) | 32.7 µM (inactive) | 96.4 µM (inactive) | > 100 µM (inactive) | 41.1 µM (inactive)
NC1=NN(c2ccccc2)C(=O)C1C(=O)C(=O)Nc1nccs1 (configuration not stated) | > 100 µM (inactive) | > 100 µM (inactive) | > 100 µM (inactive) | > 100 µM (inactive) | > 100 µM (inactive) | > 100 µM (inactive) | > 100 µM (inactive) | > 100 µM (inactive) | 
O=C1O/C(=C(\Br)c2cccc3ccccc23)c2ccccc21 | 19.5 µM (inactive) | > 33.3 µM (inactive) | 23.5 µM (inactive) | 24.5 µM (inactive) | 36.1 µM (inactive) | > 47.1 µM (inactive) |  | 25.1 µM (inactive) | 
Cc1ccc2nc(NC(=O)C(=O)C(C(=O)c3ccc4ccccc4c3)C3OC(=O)c4ccccc43)sc2c1 (configuration not stated) |  | 8.22 µM (inactive) | 13 µM (inactive) |  | 14.5 µM (inactive) | 4.35 µM (inactive) |  |  | 
COc1ccc(-c2cc(=O)c3ccccc3[nH]2)c(OC)c1 |  | > 100 µM (inactive) | > 100 µM (inactive) | > 100 µM (inactive) | > 100 µM (inactive) | > 100 µM (inactive) |  | > 100 µM (inactive) | 
CC(=O)O[C@H]1CC[C@@]2(C)C(=CC[C@@H]3C2CC[C@]2(C)Nc4[nH]ncc4CC32)C1 (some centres not stated) |  | 16.5 µM (inactive) | 32 µM (inactive) | 16.9 µM (inactive) | 24.7 µM (inactive) | 19.9 µM (inactive) | 16.7 µM (inactive) | 27.9 µM (inactive) | 4.1 µM (inactive)
CC(C)(C)C1CC[C@H]2c3c([nH]c4ccc(Br)cc34)[C@H]3C(=O)N(c4ccccc4)C(=O)[C@H]3[C@H]2C1 (some centres not stated) | 33 µM (inactive) | 18.2 µM (inactive) | 27.8 µM (inactive) | 6.27 µM (inactive) | 19.8 µM (inactive) | 14.3 µM (inactive) | 4.13 µM (inactive) | 45.9 µM (inactive) | 16.9 µM (inactive)
N#CCC(=O)N/N=C1/C(=O)NC(=O)C(=O)C1c1nc2ccccc2s1 (configuration not stated) | > 100 µM (inactive) | > 100 µM (inactive) | > 100 µM (inactive) | > 100 µM (inactive) | > 100 µM (inactive) | > 100 µM (inactive) | > 100 µM (inactive) | > 100 µM (inactive) | 
CCN(CC)CCn1ccc(=O)c2cc3c(=O)ccn(CCN(CC)CC)c3c(C)c21 | 6.82 µM (inactive) | 13.8 µM (inactive) | 1.65 µM (inactive) | 3.58 µM (inactive) | 12.6 µM (inactive) | 4.41 µM (inactive) | 5.74 µM (inactive) | 3.61 µM (inactive) | 8.95 µM (inactive)
Oc1nc2cc(Cl)ccc2nc1/C(=N\Nc1ccccc1)C(O)c1ccc(Cl)c(Cl)c1 (configuration not stated) |  | > 100 µM (inactive) | > 100 µM (inactive) | > 100 µM (inactive) | > 100 µM (inactive) | > 100 µM (inactive) | > 100 µM (inactive) | > 100 µM (inactive) | 
Nc1ncnc2c1sc(=S)n2-c1ccccc1 | > 100 µM (inactive) | > 100 µM (inactive) | > 100 µM (inactive) | > 100 µM (inactive) | > 100 µM (inactive) | > 100 µM (inactive) |  | > 100 µM (inactive) | > 100 µM (inactive)
CCCCCCCCCCCCOP(N)(=O)OCCCCCCCCCCCC |  | > 100 µM (inactive) | > 100 µM (inactive) | > 100 µM (inactive) | > 100 µM (inactive) | > 100 µM (inactive) |  |  | 
CC1(C)C(=O)C(C)(C)C1=S |  | > 100 µM (inactive) | > 100 µM (inactive) | > 100 µM (inactive) | > 100 µM (inactive) | > 100 µM (inactive) |  | > 100 µM (inactive) | > 100 µM (inactive)
CCOP(=O)(C/C(O)=C1\C(=O)C(CCCNC(=O)OC(C)(C)C)N(Cc2ccc(OC)c(OC)c2)C1=O)OCC (configuration not stated) | > 100 µM (inactive) | > 100 µM (inactive) | > 100 µM (inactive) | > 100 µM (inactive) | > 100 µM (inactive) | > 100 µM (inactive) | > 100 µM (inactive) | > 100 µM (inactive) | 
COC(C)(C)[C@H](O)C(O)CC(C)[C@@H]1CCC23CC12CCC1[C@@]2(C)CCC(OC(C)=O)C(C)(C)C2CC(OC2OC(COC(C)=O)C(O)C(O)C2O)[C@]13C (some centres not stated) | 11 µM (inactive) | 2.61 µM (inactive) | 1.83 µM (inactive) | 2.97 µM (inactive) | 3.01 µM (inactive) | 4.89 µM (inactive) | 4.86 µM (inactive) | 1.1 µM (active) | 
C=C(CN(C)C)C(=O)c1ccccc1[N+](=O)[O-] | 18.7 µM (inactive) | 18.3 µM (inactive) | 13.4 µM (inactive) | 18.2 µM (inactive) | 17.8 µM (inactive) | 14.8 µM (inactive) | 19 µM (inactive) | 23.4 µM (inactive) | 17.1 µM (inactive)
